{
  "source": "patent US20050113452A1",
  "about": "“Composition and dosage form for sustained effect of levodopa” (priority 2003, published 2005)",
  "origin": "cited, not measured here",
  "test_system": "Parkinson's disease patients",
  "settings": "especially when the two drugs are delivered together, Camicioli et al. 2001",
  "data": [
    {"smiles": "COC(=O)C(c1ccccc1)C1CCCCN1", "note": "(stereo not shown) [Methylphenidate, methylphenidate]", "values": [
      {"measurement": "Motor effects when used with levodopa", "result": "severe dyskinesia"}
    ]}
  ]
}
